The text below walks through data of patent US20240140949A1, “ANTI-CANCER PHARMACEUTICAL COMPOSITION FOR TARGETING HEAT SHOCK PROTEIN 70, CONTAINING INDOLOQUINAZOLIDINE ALKALOID” (SEOUL NATIONAL UNIVERSITY R & DB FOUNDATION, priority 2021, published 2024).

The test system of one assay is H1299 lung cancer cells. The experiment in a line: Cell viability (MTT assay) in H1299 cells. Format: cell-based, human. The conditions noted are these: 100 nM, 3 days, MTT, compared with evodiamine and EV501-EV509 (FIG. 1). An excerpt:
Human lung cancer cell lines (H1299, H460, A549, H226B, and PC9), breast cancer cell line (MDA-MB-231), liver cancer cell line (Hep3B), kidney cancer cell line (786-0), prostate cancer cell lines (DU145 and PC-3), and mouse lung cancer cell line (Lewis Lung Carcinoma, LLC) were purchased from ATCC (American Type Culture Collection) or obtained from Dr. John V. Heymach of MD Anderson Cancer Center, USA. The human head and neck cancer cell line (UMSCC38) was obtained from Dr. Jeffrey N. Myers (MD Anderson Cancer Center, USA). Human colon cancer cell lines (HCT116 and HT-29) and glioblastoma cell line (U87MG) were obtained from Professor Sang Kook Lee (Seoul National University College of Pharmacy). The human kidney cancer cell line (Caki-1), and gastric cancer cell line (SNU-638) were purchased from the Korean Cell Line Bank. The chemotherapy-resistant cells [paclitaxel-resistant H460 cells (H460/PcR), paclitaxel-resistant H226B cells (H226B/PcR), cisplatin-resistant H1299 cells (H1299/CsR), pemetrexed-resistant H1299 cells (H1299/PmR)] and molecularly targeted anticancer therapy-resistant cells [erlotinib-resistant PC9 cells (PC9/ER)] were constructed by treating the respective anti-cancer drugs for more than three months. H1299, H460, H226B, PC9, Hep3B, 786-0, DU145, PC-3, HCT116, HT-29, SNU-638, chemotherapeutic resistant cells, and molecularly targeted anticancer therapy-resistant cells were cultured in RPMI 1640 media containing 10% fetal bovine serum (FBS) and antibiotics at 37° C. under 5% CO2 conditions, while MDA-MB-231, UMSCC38, U87MG, Caki-1 were cultured in DMEM media containing 10% FBS and antibiotics at 37° C. under 5% CO2 conditions. Cells were passaged 1-2 times per week.
(§1) The cancer cell lines were seeded in a 96-well plate at a density of 2×10^3 cells per well and cultured for 24 hours to allow the cells to attach. The cells were then treated with diluted drugs in media for 3 days and cell viability was assessed using MTT assay or crystal violet (CB) assay. For the MTT assay, MTT solution dissolved in PBS was added to achieve a final concentration of 500 μg/mL and incubated for 2-4 hours, after which the medium was removed and the formed formazan was dissolved in 100% DMSO, followed by measuring the absorbance at 570 nm. For the CB assay, the cultured cells were fixed with 100% methanol, stained with a 0.025% crystal violet solution, dissolved in 1% SDS solution, and the absorbance was measured at 570 nm. Cell viability was calculated as the percentage of absorbance change in drug-treated group compared to vehicle (DMSO) treated control group.

Another assay deals with H460 xenograft tumors. Description: H460 xenograft tumor growth in NOD/SCID mice. It is filed as in vivo, mouse. The conditions noted are these: 20 mg/kg orally six times a week, vs control group (FIG. 7). The method, then:
(§2) H460 cells (5×10^6 cells/spot) or lung cancer patient-derived tumors were implanted into the flank of 6-week-old NOD/SCID mice, or LLC-Luc cells (5×10^5 cells/spot) were implanted into the flank of 8-week-old C57BL/6 mice to form tumors. When the tumor volume reached 50-100 mm^3, the mice were divided into control and experimental groups (with at least 6 mice assigned to each group), and the control group was administered with vehicle (10% DMSO and 40% PEG400 solution prepared in sterile distilled water), while the experimental group was administered with EV507 (20 mg/kg) six times a week orally. The major and minor axes of the tumor were measured, and the tumor size was measured at least 3-4 times a week, and the body weight was measured at least once a week to evaluate the toxicity of the drug. Also, the survival of C57BL/6 mice implanted with LLC-Luc cells was monitored to determine the survival curve. The tumor volume was calculated as (width)^2× length×0.5.

The subject of assay [1] is cancer cells derived from various origins. Description: Cell viability (MTT or crystal violet assay) in cancer cell lines of various origins. It is filed as cell-based, human. The conditions noted are these: various concentrations, 3 days, cancer cells of various origins (FIG. 2).
Excerpt: (§3) Human lung cancer cell lines (H1299, H460, A549, H226B, and PC9), breast cancer cell line (MDA-MB-231), liver cancer cell line (Hep3B), kidney cancer cell line (786-0), prostate cancer cell lines (DU145 and PC-3), and mouse lung cancer cell line (Lewis Lung Carcinoma, LLC) were purchased from ATCC (American Type Culture Collection) or obtained from Dr. John V. Heymach of MD Anderson Cancer Center, USA. The human head and neck cancer cell line (UMSCC38) was obtained from Dr. Jeffrey N. Myers (MD Anderson Cancer Center, USA). […]
as §1, with “Cell viability was calculated as the percentage of absorbance change in drug-treated group compared to vehicle (DMSO) treated control group.” left out

Assay [2] deals with tumors derived from lung cancer patients. Description: Lung cancer patient-derived tumor xenograft growth in NOD/SCID mice. It is filed as in vivo, mouse. The conditions noted are these: 20 mg/kg orally six times a week, vs control group (FIG. 7). The method, then: as §2
In general terms: In xenograft studies the graft and the host belong to different species.

Assay [3] concerns the target T1, Hsp70 protein (full length, N-terminal domain) (Homo sapiens, UniProt P0DMV8).
T1 construct: 35 μg of Hsp70 full length, Hsp70 N-terminal, Hsp70 C-terminal proteins were treated with vehicle (DMSO)
Description: Drug affinity responsive target stability (DARTS). Format: binding. The conditions noted are these: up to 10 μM, proteinase K (FIG. 6). The method, then:
35 μg of Hsp70 full length, Hsp70 N-terminal, Hsp70 C-terminal proteins were treated with vehicle (DMSO) or up to 10 μM of EV507 (final DMSO concentration: 1%) at 4° C. for 30 minutes, followed by a treatment with proteinase K (proteinase K:protein=1:100) at room temperature for 15 minutes. The reaction was terminated by adding a 5×SDS-PAGE sample buffer and boiling at 95° C. for 5 minutes, after which electrophoresis was performed with 8% SDS-PAGE. The proteins were transferred to a PVDF membrane, and the Western blot analysis method described above was performed.

A further assay concerns cancer cell. The experiment in a line: Cancer cell survival inhibitory activity (crystal violet assay). Format: cell-based. The conditions noted are these: crystal violet assay (FIG. 19). The method, then: as §1
The subject of assay [4] is cancer cell lines of various origins. Description: Anchorage-dependent colony formation in cancer cell lines of various origins. Format: cell-based, human. The conditions noted are these: 50 nM, 2 weeks (FIG. 3).
Excerpt: as §3, with “USA). Human colon cancer cell lines (HCT116 and HT-29) and glioblastoma cell line (U87MG) were obtained from Professor Sang Kook Lee (Seoul National University College of Pharmacy). The human kidney cancer cell line (Caki-1), and gastric cancer cell line (SNU-638) were purchased from the Korean Cell Line Bank.” for “USA).”
Cancer cell lines were seeded in a 24-well or 6-well plate at 100-250 cells per well and allowed to attach, followed by treatment with drugs diluted in media and cultured for 2-3 weeks. Formed colonies were stained with crystal violet and counted. The drug's colony formation inhibitory effect was calculated as the percentage of colony number change in the drug-treated group compared to the vehicle (DMSO)-treated control group.

The next assay has as its system LLC-Luc tumors. The experiment in a line: Survival in LLC-Luc transplant allograft (lung metastasis) model. It is filed as in vivo, mouse. The conditions noted are these: C57BL/6 mice, 20 mg/kg orally six times a week (FIG. 8). The method, then: as §2
Moreover, it is known that in the LLC-Luc transplant allograft model that spontaneously generates pulmonary metastatic cancer, mouse mortality occurs due to the proliferation of transplanted LLC-Luc tumors and the formation of pulmonary metastatic cancer. In this allograft model, EV507 was administered to confirm its inhibitory effect on mouse mortality caused by tumor proliferation.

T1 sequence (P0DMV8 2-641): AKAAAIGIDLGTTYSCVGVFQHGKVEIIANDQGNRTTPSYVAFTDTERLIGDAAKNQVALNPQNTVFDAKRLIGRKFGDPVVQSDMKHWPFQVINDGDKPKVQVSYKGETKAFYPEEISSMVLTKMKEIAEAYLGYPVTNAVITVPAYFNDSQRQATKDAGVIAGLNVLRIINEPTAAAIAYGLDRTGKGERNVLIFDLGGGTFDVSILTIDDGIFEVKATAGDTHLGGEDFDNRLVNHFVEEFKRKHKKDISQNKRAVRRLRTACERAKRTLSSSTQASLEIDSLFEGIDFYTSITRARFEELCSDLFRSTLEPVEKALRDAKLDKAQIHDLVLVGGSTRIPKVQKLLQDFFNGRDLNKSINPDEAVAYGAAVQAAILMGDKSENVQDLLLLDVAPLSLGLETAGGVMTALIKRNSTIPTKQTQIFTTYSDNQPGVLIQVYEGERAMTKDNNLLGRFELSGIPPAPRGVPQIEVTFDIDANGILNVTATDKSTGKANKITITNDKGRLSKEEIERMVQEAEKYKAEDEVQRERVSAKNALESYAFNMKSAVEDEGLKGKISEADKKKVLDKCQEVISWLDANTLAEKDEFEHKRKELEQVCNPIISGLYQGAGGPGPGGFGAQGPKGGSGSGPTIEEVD

For `C=CCN1c2ccccc2C(=O)N2CCc3c([nH]c4ccc(O)cc34)C21` (centres unmarked) [EV507], in the assay on H1299 lung cancer cells, the “inhibition of cancer cell survival (cell viability)” value was “most excellent efficacy”. In addition, the tumor growth result (in the assay on H460 xenograft tumors; in assay [2]) was “significantly inhibited” in each case. In assay [1], the “anti-cancer survival inhibition efficacy” value was “concentration-dependent anti-cancer survival inhibition efficacy”. Moreover, the “binding to Hsp70 protein, particularly the N-terminal domain” value in assay [3] is “binds”. Further, the “cancer cell survival inhibitory activity” value in the assay on cancer cell is reported as “excellent”. In addition, the “formation of colonies under anchorage-dependent conditions” value in assay [4] was “significantly inhibited”. Moreover, in the assay with LLC-Luc tumors, the mouse mortality result is “significantly reduced”.
